From patent publication US10512264B2, “Herbicidal mixtures” (Syngenta Participations AG, priority 2015, dated 2019)
“And” between values parts separate entries of the source, which are not always exact repeats. Equal entries are not always repeated.

Legend:
Type in all cases: in vivo
Settings in all cases: 21 days after application
[1] = system: Digitaria sanguinalis (DIGSA); experiment: Herbicidal action, pre-emergence glasshouse test, Digitaria sanguinalis
Experimental: (§1) Seeds of a variety of test species were sown in standard soil in pots. After cultivation for one day (pre-emergence) under controlled conditions in a glasshouse (at 24/18° C., at day/night; 16 hours light; 65% humidity), the plants were sprayed with an aqueous spray solution derived from the formulation of the technical active ingredient dissolved in acetone plus formulation A containing 10.56 wt % Emulsogen EL, 42.22 wt % N-MethylPyrrolidon, 2.22 wt % DPG-Monoethyl ether at a 1:20 ratio (technical active ingredient:formulation A). To achieve the mixture treatments, the appropriate concentration of the mixture partner (commercial formulation) was added to the solution in order to achieve the desired experimental compound:mixture partner ratio).
(§2) After application, the test plants were grown in a glasshouse under controlled conditions (at 24/18° C. day/night; 16 hours light; 65% humidity) and watered twice daily. Herbicidal activity was evaluated 21 days after application in a 100-0 scale (100=total damage to plant; 0=no damage to plant).

[2] = system: Euphorbia heterophylla (EPHHL); experiment: Herbicidal action, pre-emergence glasshouse test, Euphorbia heterophylla
Experimental: as §1, §2

[3] = system: Ambrosia artimisifolia (AMBEL); experiment: Herbicidal action, pre-emergence glasshouse test, Ambrosia artimisifolia
Experimental: as §1, §2

Setaria fabarii (SETFA) = experiment: Herbicidal action, pre-emergence glasshouse test, Setaria fabarii
Experimental: as §1, §2

Ipomea purpurea (PHBPU) = experiment: Herbicidal action, pre-emergence glasshouse test, Ipomea purpurea
Experimental: as §1, §2

Bidens pilosa (BIDPI) = experiment: Herbicidal action, pre-emergence glasshouse test, Bidens pilosa
Experimental: as §1, §2

| Compound | Activity (% of untreated) Observed ([1]; alone 100 g/ha) | Activity (% of untreated) Observed ([1]; alone 250 g/ha) | Activity (% of untreated) Observed ([2]; applied alone at 100 g/ha) | Activity (% of untreated) Observed ([2]; applied alone at 250 g/ha) | Activity (% of untreated) Observed ([3]; applied alone at 100 g/ha) | Activity (% of untreated) Observed ([3]; applied alone at 250 g/ha) | Activity (% of untreated) Observed (Setaria fabarii (SETFA); alone 100 g/ha) | Activity (% of untreated) Observed (Setaria fabarii (SETFA); alone 250 g/ha) | Activity (% of untreated) Observed (Ipomea purpurea (PHBPU); applied alone at 100 g/ha) | Activity (% of untreated) Observed (Ipomea purpurea (PHBPU); applied alone at 250 g/ha) | Activity (% of untreated) Observed ([1]; alone 10 g/ha) | Activity (% of untreated) Observed ([1]; alone 50 g/ha) | Activity (% of untreated) Observed (Bidens pilosa (BIDPI); applied alone at 10 g/ha) | Activity (% of untreated) Observed (Bidens pilosa (BIDPI); applied alone at 25 g/ha) | Activity (% of untreated) Observed ([3]; applied alone at 10 g/ha) | Activity (% of untreated) Observed ([3]; applied alone at 50 g/ha) | Activity (% of untreated) Observed (Setaria fabarii (SETFA); alone 10 g/ha) | Activity (% of untreated) Observed (Setaria fabarii (SETFA); alone 50 g/ha) | Activity (% of untreated) Observed (Ipomea purpurea (PHBPU); applied alone at 25 g/ha) | Activity (% of untreated) Observed (Ipomea purpurea (PHBPU); applied alone at 50 g/ha) | also measured |
| --- | --- | --- | --- | --- | --- | --- | --- | --- | --- | --- | --- | --- | --- | --- | --- | --- | --- | --- | --- | --- | --- |
| COC1=C(C)C(O)N(c2cc(C(C)(C)C)ncn2)C1=O (stereo not drawn) [Compound 1.1] | 0 % of untreated | 65 % of untreated | 12.5 % of untreated | 70 % of untreated | 37.5 % of untreated | 85 % of untreated | 0 % of untreated | 70 % of untreated | 0 % of untreated | 5 % of untreated |  |  |  |  |  |  |  |  |  |  |  |
| COC1=C(C)C(O)N(c2cc(C(C)(C)C)on2)C1=O (stereo not drawn) [Compound 1.2] | 0 % of untreated | 5 % of untreated | 10 % of untreated | 80 % of untreated | 42.5 % of untreated | 92.5 % of untreated | 0 % of untreated | 72.5 % of untreated | 2.5 % of untreated | 35 % of untreated |  |  |  |  |  |  |  |  |  |  | Activity (% of untreated) Observed (Bidens pilosa (BIDPI); applied alone at 100 g/ha): 65 % of untreated; Activity (% of untreated) Observed (Bidens pilosa (BIDPI); applied alone at 250 g/ha): 85 % of untreated |
| CC1=C(Cl)C(=O)N(c2cc(C(C)(C)C)on2)C1O (stereo not drawn) [Compound 1.3] |  | 100 % of untreated |  | 87.5 % of untreated |  | 86 % of untreated and 99 % of untreated |  |  |  | 85 % of untreated and 72.5 % of untreated |  |  |  |  |  |  |  |  |  |  | Activity (% of untreated) Observed ([1]; alone 31.25 g/ha): 0 % of untreated; Activity (% of untreated) Observed ([1]; alone 62.5 g/ha): 65 % of untreated; Activity (% of untreated) Observed ([1]; alone 125 g/ha): 99 % of untreated; Activity (% of untreated) Observed ([1]; alone 500 g/ha): 99.5 % of untreated and 99 % of untreated; Activity (% of untreated) Observed ([2]; applied alone at 31.25 g/ha): 5 % of untreated; Activity (% of untreated) Observed ([2]; applied alone at 62.5 g/ha): 15 % of untreated; Activity (% of untreated) Observed ([2]; applied alone at 125 g/ha): 35 % of untreated; Activity (% of untreated) Observed ([2]; applied alone at 500 g/ha): 100 % of untreated; Activity (% of untreated) Observed ([3]; applied alone at 31.25 g/ha): 85 % of untreated; Activity (% of untreated) Observed ([3]; applied alone at 62.5 g/ha): 97 % of untreated; Activity (% of untreated) Observed ([3]; applied alone at 125 g/ha): 85 % of untreated and 98.5 % of untreated; Activity (% of untreated) Observed ([3]; applied alone at 500 g/ha): 98.5 % of untreated and 99 % of untreated; Activity (% of untreated) Observed (Setaria fabarii (SETFA); alone 31.25 g/ha): 90 % of untreated; Activity (% of untreated) Observed (Setaria fabarii (SETFA); alone 62.5 g/ha): 100 % of untreated; Activity (% of untreated) Observed (Ipomea purpurea (PHBPU); applied alone at 31.25 g/ha): 67.5 % of untreated; Activity (% of untreated) Observed (Ipomea purpurea (PHBPU); applied alone at 62.5 g/ha): 97.5 % of untreated; Activity (% of untreated) Observed (Ipomea purpurea (PHBPU); applied alone at 125 g/ha): 40 % of untreated and 50 % of untreated; Activity (% of untreated) Observed (Ipomea purpurea (PHBPU); applied alone at 500 g/ha): 100 % of untreated and 90 % of untreated |
| CS(=O)(=O)c1ccc(C(=O)C2C(=O)CCCC2=O)c([N+](=O)[O-])c1 [Mesotrione, reference compound] | 0 % of untreated |  |  |  | 25 % of untreated |  | 57.5 % of untreated |  | 50 % of untreated |  | 45 % of untreated | 5 % of untreated | 10 % of untreated | 30 % of untreated | 7.5 % of untreated | 12.5 % of untreated | 0 % of untreated | 35 % of untreated | 0 % of untreated | 0 % of untreated |  |
| Bicyclopyrone [reference compound] | 0 % of untreated |  | 100 % of untreated |  | 25 % of untreated |  | 57.5 % of untreated |  | 50 % of untreated |  | 87.5 % of untreated | 5 % of untreated | 0 % of untreated | 5 % of untreated | 70 % of untreated | 12.5 % of untreated | 17.5 % of untreated | 35 % of untreated | 0 % of untreated | 0 % of untreated | Activity (% of untreated) Observed ([2]; applied alone at 10 g/ha): 32.5 % of untreated; Activity (% of untreated) Observed ([2]; applied alone at 25 g/ha): 77.5 % of untreated and 95 % of untreated; Activity (% of untreated) Observed ([2]; applied alone at 50 g/ha): 98.5 % of untreated; Activity (% of untreated) Observed (Ipomea purpurea (PHBPU); applied alone at 10 g/ha): 0 % of untreated |
| S-Metolachlor |  |  |  |  |  |  |  |  |  |  |  |  |  |  |  |  |  |  |  |  | Activity (% of untreated) Observed ([1]; alone 80 g/ha): 65 % of untreated; Activity (% of untreated) Observed ([1]; alone 200 g/ha): 100 % of untreated; Activity (% of untreated) Observed (Setaria fabarii (SETFA); alone 80 g/ha): 85 % of untreated; Activity (% of untreated) Observed (Setaria fabarii (SETFA); alone 200 g/ha): 98.5 % of untreated |
